Experimental data reported in paper PMC8371461 (Frontiers in Pharmacology, 2021).

Assays:
JNK1 = target: T1, JNK1 (Homo sapiens, UniProt P45983); test: kinome scan; type: binding; conditions: 10 µM
T1 construct: purchased DiscoverX (KINOMEscan)

PIK3CA(H1047L) = target: T2, PIK3CA(H1047L) (Homo sapiens, UniProt P42336, H1047L); test: kinome scan; type: binding; conditions: 10 µM
T2 construct: purchased DiscoverX (KINOMEscan)

FGR = target: T3, FGR (Homo sapiens, UniProt P09769); test: kinome scan; type: binding; conditions: 10 µM
T3 construct: purchased DiscoverX (KINOMEscan)

ACVR2A = target: T4, ACVR2A (Homo sapiens, UniProt P27037); test: kinome scan; type: binding; conditions: 10 µM
T4 construct: purchased DiscoverX (KINOMEscan)

MLK3 = target: T5, MLK3 (Homo sapiens, UniProt Q16584); test: kinome scan; type: binding; conditions: 10 µM
T5 construct: purchased DiscoverX (KINOMEscan)

MRCKB = target: T6, MRCKB (Homo sapiens, UniProt Q9Y5S2); test: kinome scan; type: binding; conditions: 10 µM
T6 construct: purchased DiscoverX (KINOMEscan)

PSC = test: LC3B positive autophagosomes, immunofluorescent staining; type: cell-based, mouse; conditions: 10 µM, three days
Method: Cells were fixed with PBS containing 0.5% of para-formaldehyde for 15 min at room temperature. After three washing steps in PBS, cells were permeabilized with PBS containing 0.3% of Triton X-100 (Sigma) for 1 h at room temperature. After washing with PBS three times, cells were incubated overnight with the anti-LC3B antibody in PBS with 1% bovine serum albumin (Sigma) at 4°C. After three washing steps in PBS, cells were incubated with the fluorescent secondary antibody for 90 min at 4°C in PBS with 1% bovine serum albumin. They were then incubated with […] DAPI (Thermofisher) in PBS for 15 min. After washing with PBS, cells were rinsed once in water prior to mounting in the FluorSave reagent (Millipore).
Depending of these transitory environmental conditions, autophagy can either promote survival or apoptosis ([Degtyarev et al., 2008]). PIK/AKT pathway inhibition has been reported to increase cell autophagy ([Palmieri et al., 2017]). More specifically, PIP4K2C has been described as a down-regulator of autophagy ([Sharma et al., 2019]).

PDGFRA = target: T7, PDGFRA (Homo sapiens, UniProt P16234); test: kinome scan; type: binding; conditions: 10 µM
T7 construct: purchased DiscoverX (KINOMEscan)

EPHA3 = target: T8, EPHA3 (Homo sapiens, UniProt P29320); test: kinome scan; type: binding; conditions: 10 µM
T8 construct: purchased DiscoverX (KINOMEscan)

PFTAIRE2 = target: T9, PFTAIRE2 (Homo sapiens, UniProt Q96Q40); test: kinome scan; type: binding; conditions: 10 µM
T9 construct: purchased DiscoverX (KINOMEscan)

PFTK1 = target: T10, PFTK1 (Homo sapiens, UniProt O94921); test: kinome scan; type: binding; conditions: 10 µM
T10 construct: purchased DiscoverX (KINOMEscan)

TIE2 = target: T11, TIE2 (Homo sapiens, UniProt Q02763); test: kinome scan; type: binding; conditions: 10 µM
T11 construct: purchased DiscoverX (KINOMEscan)

CDK2 = target: T12, CDK2 (Homo sapiens, UniProt P24941); test: kinome scan; type: binding; conditions: 10 µM
T12 construct: purchased DiscoverX (KINOMEscan)

[1] = target: T13, RPS6KA4(Kin.Dom.2-C-terminal) (Homo sapiens, UniProt O75676); test: kinome scan; type: binding; conditions: 10 µM
T13 construct: RPS6KA4(Kin.Dom.2-C-terminal); purchased DiscoverX (KINOMEscan)

MST3 = target: T14, MST3 (Homo sapiens, UniProt Q9Y6E0); test: kinome scan; type: binding; conditions: 10 µM
T14 construct: purchased DiscoverX (KINOMEscan)

TLK1 = target: T15, TLK1 (Homo sapiens, UniProt Q9UKI8); test: kinome scan; type: binding; conditions: 10 µM
T15 construct: purchased DiscoverX (KINOMEscan)

DLK = target: T16, DLK (Homo sapiens, UniProt Q12852); test: kinome scan; type: binding; conditions: 10 µM
T16 construct: purchased DiscoverX (KINOMEscan)

CSF1R = target: T17, CSF1R (Homo sapiens, UniProt P07333); test: kinome scan; type: binding; conditions: 10 µM
T17 construct: purchased DiscoverX (KINOMEscan)

EPHB4 = target: T18, EPHB4 (Homo sapiens, UniProt P54760); test: kinome scan; type: binding; conditions: 10 µM
T18 construct: purchased DiscoverX (KINOMEscan)

FLT3(D835H) = target: T19, FLT3(D835H) (Homo sapiens, UniProt P36888, D835H); test: kinome scan; type: binding; conditions: 10 µM
T19 construct: purchased DiscoverX (KINOMEscan)

CLK4 = target: T20, CLK4 (Homo sapiens, UniProt Q9HAZ1); test: kinome scan; type: binding; conditions: 10 µM
T20 construct: purchased DiscoverX (KINOMEscan)

AMPK-alpha2 = target: T21, AMPK-alpha2 (Homo sapiens, UniProt P54646); test: kinome scan; type: binding; conditions: 10 µM
T21 construct: purchased DiscoverX (KINOMEscan)

BRK = target: T22, BRK (Homo sapiens, UniProt Q13882); test: kinome scan; type: binding; conditions: 10 µM
T22 construct: purchased DiscoverX (KINOMEscan)

GSK3A = target: T23, GSK3A (Homo sapiens, UniProt P49840); test: kinome scan; type: binding; conditions: 10 µM
T23 construct: purchased DiscoverX (KINOMEscan)

CDKL1 = target: T24, CDKL1 (Homo sapiens, UniProt Q00532); test: kinome scan; type: binding; conditions: 10 µM
T24 construct: purchased DiscoverX (KINOMEscan)

[2] = target: T25, ABL1(Q252H)-nonphosphorylated (Homo sapiens, UniProt P00519, Q252H); test: kinome scan; type: binding; conditions: 10 µM
T25 construct: purchased DiscoverX (KINOMEscan)

AXL = target: T26, AXL (Homo sapiens, UniProt P30530); test: kinome scan; type: binding; conditions: 10 µM
T26 construct: purchased DiscoverX (KINOMEscan)

MST4 = target: T27, MST4 (Homo sapiens, UniProt Q9P289); test: kinome scan; type: binding; conditions: 10 µM
T27 construct: purchased DiscoverX (KINOMEscan)

IRAK3 = target: T28, IRAK3 (Homo sapiens, UniProt Q9Y616); test: kinome scan; type: binding; conditions: 10 µM
T28 construct: purchased DiscoverX (KINOMEscan)

DDR2 = target: T29, DDR2 (Homo sapiens, UniProt Q16832); test: kinome scan; type: binding; conditions: 10 µM
T29 construct: purchased DiscoverX (KINOMEscan)

OSR1 = target: T30, OSR1 (Homo sapiens, UniProt O95747); test: kinome scan; type: binding; conditions: 10 µM
T30 construct: purchased DiscoverX (KINOMEscan)

ASK1 = target: T31, ASK1 (Homo sapiens, UniProt Q99683); test: kinome scan; type: binding; conditions: 10 µM
T31 construct: purchased DiscoverX (KINOMEscan)

DMPK2 = target: T32, DMPK2 (Homo sapiens, UniProt Q6DT37); test: kinome scan; type: binding; conditions: 10 µM
T32 construct: purchased DiscoverX (KINOMEscan)

PIK3CA(H1047Y) = target: T33, PIK3CA(H1047Y) (Homo sapiens, UniProt P42336, H1047Y); test: kinome scan; type: binding; conditions: 10 µM
T33 construct: purchased DiscoverX (KINOMEscan)

ABL2 = target: T34, ABL2 (Homo sapiens, UniProt P42684); test: kinome scan; type: binding; conditions: 10 µM
T34 construct: purchased DiscoverX (KINOMEscan)

DRAK1 = target: T35, DRAK1 (Homo sapiens, UniProt Q9UEE5); test: kinome scan; type: binding; conditions: 10 µM
T35 construct: purchased DiscoverX (KINOMEscan)

PIK3CA(I800L) = target: T36, PIK3CA(I800L) (Homo sapiens, UniProt P42336, I800L); test: kinome scan; type: binding; conditions: 10 µM
T36 construct: purchased DiscoverX (KINOMEscan)

T31 sequence (Q99683 whole entry): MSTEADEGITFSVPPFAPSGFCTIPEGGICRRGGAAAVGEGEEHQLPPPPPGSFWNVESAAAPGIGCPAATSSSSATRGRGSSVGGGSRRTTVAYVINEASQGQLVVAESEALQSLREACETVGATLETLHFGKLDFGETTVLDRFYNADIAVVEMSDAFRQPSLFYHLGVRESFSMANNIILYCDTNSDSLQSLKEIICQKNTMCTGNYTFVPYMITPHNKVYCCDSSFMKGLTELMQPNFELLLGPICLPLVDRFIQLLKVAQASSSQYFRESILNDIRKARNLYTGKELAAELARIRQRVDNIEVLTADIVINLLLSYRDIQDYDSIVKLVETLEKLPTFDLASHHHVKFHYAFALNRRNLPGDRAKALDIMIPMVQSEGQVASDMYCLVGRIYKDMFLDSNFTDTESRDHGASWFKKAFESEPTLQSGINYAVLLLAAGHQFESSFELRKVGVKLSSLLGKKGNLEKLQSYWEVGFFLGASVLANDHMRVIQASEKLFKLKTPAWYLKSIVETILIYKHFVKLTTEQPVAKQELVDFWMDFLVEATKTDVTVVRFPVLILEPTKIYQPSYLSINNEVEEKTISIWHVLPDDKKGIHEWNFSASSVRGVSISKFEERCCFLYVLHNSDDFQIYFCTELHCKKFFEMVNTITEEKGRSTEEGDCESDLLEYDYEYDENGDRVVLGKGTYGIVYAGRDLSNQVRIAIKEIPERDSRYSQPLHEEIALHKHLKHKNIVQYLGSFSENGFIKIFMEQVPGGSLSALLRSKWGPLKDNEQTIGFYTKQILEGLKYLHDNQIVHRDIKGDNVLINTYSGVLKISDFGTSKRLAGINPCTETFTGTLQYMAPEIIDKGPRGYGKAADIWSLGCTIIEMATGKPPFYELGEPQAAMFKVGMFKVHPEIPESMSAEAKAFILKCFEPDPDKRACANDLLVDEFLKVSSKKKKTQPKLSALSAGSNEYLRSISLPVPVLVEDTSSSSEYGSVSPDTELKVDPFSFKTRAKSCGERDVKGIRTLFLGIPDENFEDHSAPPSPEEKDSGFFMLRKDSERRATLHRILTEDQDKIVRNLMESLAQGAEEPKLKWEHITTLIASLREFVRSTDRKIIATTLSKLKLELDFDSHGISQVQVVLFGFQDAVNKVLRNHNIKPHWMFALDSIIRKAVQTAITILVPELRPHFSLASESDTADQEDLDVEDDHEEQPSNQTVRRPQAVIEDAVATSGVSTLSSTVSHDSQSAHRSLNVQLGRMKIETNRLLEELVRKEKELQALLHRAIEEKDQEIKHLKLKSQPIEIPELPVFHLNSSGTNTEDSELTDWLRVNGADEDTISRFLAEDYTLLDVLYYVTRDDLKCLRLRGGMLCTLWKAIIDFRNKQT
T34 sequence (P42684 whole entry): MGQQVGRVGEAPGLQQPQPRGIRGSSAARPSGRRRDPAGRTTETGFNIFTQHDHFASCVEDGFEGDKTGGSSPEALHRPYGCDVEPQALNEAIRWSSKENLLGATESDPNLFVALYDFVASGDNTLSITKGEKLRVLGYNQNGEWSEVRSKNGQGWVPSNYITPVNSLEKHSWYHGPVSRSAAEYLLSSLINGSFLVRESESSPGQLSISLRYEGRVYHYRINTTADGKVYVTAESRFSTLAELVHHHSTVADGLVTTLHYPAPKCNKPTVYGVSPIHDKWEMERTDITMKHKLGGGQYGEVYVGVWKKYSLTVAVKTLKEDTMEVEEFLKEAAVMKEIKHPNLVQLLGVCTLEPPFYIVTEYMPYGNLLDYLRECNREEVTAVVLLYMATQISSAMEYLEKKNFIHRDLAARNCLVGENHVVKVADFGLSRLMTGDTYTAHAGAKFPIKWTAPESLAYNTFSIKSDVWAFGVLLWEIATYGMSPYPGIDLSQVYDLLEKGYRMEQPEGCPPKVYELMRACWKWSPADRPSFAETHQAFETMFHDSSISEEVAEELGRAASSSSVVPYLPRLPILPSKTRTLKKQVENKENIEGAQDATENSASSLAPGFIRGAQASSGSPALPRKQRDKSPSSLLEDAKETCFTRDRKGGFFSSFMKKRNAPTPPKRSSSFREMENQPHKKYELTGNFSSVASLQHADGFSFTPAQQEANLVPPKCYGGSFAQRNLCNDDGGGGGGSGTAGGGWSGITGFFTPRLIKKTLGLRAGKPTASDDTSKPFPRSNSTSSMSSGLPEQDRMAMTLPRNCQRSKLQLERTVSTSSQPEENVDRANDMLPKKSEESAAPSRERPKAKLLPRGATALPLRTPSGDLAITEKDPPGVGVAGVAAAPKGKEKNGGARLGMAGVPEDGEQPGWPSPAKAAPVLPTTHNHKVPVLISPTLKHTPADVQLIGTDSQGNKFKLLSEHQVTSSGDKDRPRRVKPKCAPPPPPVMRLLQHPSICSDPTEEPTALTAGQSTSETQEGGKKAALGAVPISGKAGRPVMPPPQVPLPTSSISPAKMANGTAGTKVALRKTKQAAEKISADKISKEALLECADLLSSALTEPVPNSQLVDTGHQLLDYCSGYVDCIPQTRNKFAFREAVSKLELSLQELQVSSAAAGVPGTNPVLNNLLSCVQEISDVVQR
T3 sequence (P09769 whole entry): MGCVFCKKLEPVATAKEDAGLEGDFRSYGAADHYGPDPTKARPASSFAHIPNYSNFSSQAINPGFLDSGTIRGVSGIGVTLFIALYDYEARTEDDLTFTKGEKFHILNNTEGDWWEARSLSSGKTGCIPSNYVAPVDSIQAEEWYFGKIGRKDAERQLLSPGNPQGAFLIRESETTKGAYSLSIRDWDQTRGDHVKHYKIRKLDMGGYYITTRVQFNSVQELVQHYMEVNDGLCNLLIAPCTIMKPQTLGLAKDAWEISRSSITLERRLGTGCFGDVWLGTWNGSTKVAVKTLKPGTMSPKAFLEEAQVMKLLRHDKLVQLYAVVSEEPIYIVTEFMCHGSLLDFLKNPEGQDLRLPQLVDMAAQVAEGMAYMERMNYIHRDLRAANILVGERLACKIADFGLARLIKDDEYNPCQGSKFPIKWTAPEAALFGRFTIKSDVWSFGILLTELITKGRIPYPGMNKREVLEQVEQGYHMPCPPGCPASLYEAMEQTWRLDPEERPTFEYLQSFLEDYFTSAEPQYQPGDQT
T15 sequence (Q9UKI8 whole entry): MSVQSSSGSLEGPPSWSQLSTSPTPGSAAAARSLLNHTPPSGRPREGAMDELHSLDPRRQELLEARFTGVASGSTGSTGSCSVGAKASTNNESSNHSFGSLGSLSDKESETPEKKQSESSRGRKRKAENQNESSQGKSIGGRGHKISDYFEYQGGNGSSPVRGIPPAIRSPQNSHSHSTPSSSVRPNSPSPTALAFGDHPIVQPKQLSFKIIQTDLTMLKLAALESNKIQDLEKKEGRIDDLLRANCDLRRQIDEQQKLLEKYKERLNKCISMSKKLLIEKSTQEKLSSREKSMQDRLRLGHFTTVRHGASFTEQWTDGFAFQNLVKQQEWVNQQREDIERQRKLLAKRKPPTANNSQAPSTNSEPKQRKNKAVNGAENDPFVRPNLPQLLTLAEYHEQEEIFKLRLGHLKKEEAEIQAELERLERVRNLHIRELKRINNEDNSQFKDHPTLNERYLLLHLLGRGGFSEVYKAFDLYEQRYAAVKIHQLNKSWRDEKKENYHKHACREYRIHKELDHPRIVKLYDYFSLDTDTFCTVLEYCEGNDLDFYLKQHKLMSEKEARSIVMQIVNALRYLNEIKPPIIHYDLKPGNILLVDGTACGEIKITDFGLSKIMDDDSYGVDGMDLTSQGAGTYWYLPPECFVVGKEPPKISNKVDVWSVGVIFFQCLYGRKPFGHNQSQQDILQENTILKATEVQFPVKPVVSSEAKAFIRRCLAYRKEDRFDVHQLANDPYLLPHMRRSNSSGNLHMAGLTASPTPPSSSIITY
T21 sequence (P54646 whole entry): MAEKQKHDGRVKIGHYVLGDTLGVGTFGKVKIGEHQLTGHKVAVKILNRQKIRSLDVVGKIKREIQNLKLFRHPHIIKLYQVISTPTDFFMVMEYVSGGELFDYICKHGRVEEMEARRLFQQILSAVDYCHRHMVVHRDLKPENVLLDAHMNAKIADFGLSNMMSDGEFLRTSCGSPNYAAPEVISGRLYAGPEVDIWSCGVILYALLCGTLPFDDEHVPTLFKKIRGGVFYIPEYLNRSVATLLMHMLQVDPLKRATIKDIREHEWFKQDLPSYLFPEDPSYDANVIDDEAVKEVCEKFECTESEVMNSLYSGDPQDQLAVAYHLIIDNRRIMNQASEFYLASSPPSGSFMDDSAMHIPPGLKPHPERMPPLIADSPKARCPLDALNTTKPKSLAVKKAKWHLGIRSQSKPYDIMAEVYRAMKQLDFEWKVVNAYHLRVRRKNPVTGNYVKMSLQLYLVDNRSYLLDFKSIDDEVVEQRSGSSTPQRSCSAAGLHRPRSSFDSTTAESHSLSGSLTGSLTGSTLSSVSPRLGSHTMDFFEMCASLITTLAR
T30 sequence (O95747 whole entry): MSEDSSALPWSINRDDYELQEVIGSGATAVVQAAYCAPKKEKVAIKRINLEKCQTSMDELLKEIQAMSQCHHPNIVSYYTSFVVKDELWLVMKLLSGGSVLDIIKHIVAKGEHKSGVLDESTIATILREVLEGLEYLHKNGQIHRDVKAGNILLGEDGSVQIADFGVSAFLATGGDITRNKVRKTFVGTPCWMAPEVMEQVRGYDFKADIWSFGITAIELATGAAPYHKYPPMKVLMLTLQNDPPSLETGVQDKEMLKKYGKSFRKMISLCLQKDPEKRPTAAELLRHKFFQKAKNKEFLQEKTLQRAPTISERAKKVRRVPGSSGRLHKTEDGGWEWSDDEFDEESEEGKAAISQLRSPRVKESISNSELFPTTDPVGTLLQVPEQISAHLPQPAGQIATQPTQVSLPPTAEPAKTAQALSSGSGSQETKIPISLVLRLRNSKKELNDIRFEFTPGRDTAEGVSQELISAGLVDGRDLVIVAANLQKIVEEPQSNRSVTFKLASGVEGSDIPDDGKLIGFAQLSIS

Nc1ccc(N=Nc2ccccc2)c(N)n1 [phenazopyridine, 2,6-diamino-3-(phenylazo)pyridine]
kinase inhibition (JNK1): 78 | kinase inhibition (PIK3CA(H1047L)): 80 | remaining binding (% of control) (FGR): 87 | kinase inhibition (ACVR2A): 94 | kinase inhibition (MLK3): 100 | kinase inhibition (MRCKB): 100 | number of LC3B-positive autophagosomes (PSC): increased | kinase inhibition (PDGFRA): 38 | kinase inhibition (EPHA3): 81 | kinase inhibition (PFTAIRE2): 96 | kinase inhibition (PFTK1): 100 | kinase inhibition (TIE2): 98 | kinase inhibition (CDK2): 82 | kinase inhibition [1]: 90 | kinase inhibition (MST3): 98 | kinase inhibition (TLK1): 70 | kinase inhibition (DLK): 73 | kinase inhibition (CSF1R): 81 | kinase inhibition (EPHB4): 95 | remaining binding (% of control) (FLT3(D835H)): 81 | kinase inhibition (CLK4): 72 | kinase inhibition (AMPK-alpha2): 84 | kinase inhibition (BRK): 100 | kinase inhibition (GSK3A): 100 | kinase inhibition (CDKL1): 100 | kinase inhibition [2]: 90 | kinase inhibition (AXL): 100 | kinase inhibition (MST4): 96 | kinase inhibition (IRAK3): 71 | kinase inhibition (DDR2): 100 | kinase inhibition (OSR1): 100 | kinase inhibition (ASK1): 100 | kinase inhibition (DMPK2): 100 | kinase inhibition (PIK3CA(H1047Y)): 100 | kinase inhibition (ABL2): 96 | kinase inhibition (DRAK1): 45 | kinase inhibition (PIK3CA(I800L)): 88
